The values that follow come from ChEMBL document CHEMBL4229544, “Design, synthesis and antibacterial properties of pyrimido[4,5-b]indol-8-amine inhibitors of DNA gyrase” (Bioorg Med Chem Lett, 2018).

SMILES strings stand for the structures. In brackets after ≈: the same amount, converted by molar mass. Where only a bound is given, the exact number is not on record here.

Holding throughout (type): functional
Assay [1] has as its system Mycobacterium tuberculosis. Description: Antitubercular activity against rifampicin-resistant Mycobacterium tuberculosis H37Rv harboring RpoB S522L mutant.
Assay [2] relates to Mycobacterium tuberculosis. Briefly: Antitubercular activity against fluoroquinolone-resistant Mycobacterium tuberculosis H37Rv harboring gyrA D94N mutant.
Assay [3] deals with Mycobacterium tuberculosis. Briefly: Antitubercular activity against isoniazid-resistant Mycobacterium tuberculosis H37Rv harboring katG Y155 mutant.

With `CNc1cc(F)cc2c1[nH]c1nc(CNC(=O)c3cocn3)nc(N3CCC(N)C3)c12` (stereo not drawn), the minimum inhibitory concentration (MIC) (commonly the smallest concentration in the dilution series that meets the test's criterion for growth inhibition) in assay [1] worked out at 0.012 µg/mL (≈ 0.0283 µM); in assay [2], 0.014 µg/mL (≈ 0.033 µM); in assay [3], 0.013 µg/mL (≈ 0.0306 µM).
The matching figures for `CNc1cc(F)cc2c1[nH]c1nc(CNC(=O)c3cnco3)nc(N3CCC(N)C3)c12` (stereo not drawn): 0.09 µg/mL (≈ 0.212 µM), 0.09 µg/mL (≈ 0.212 µM) and 0.09 µg/mL (≈ 0.212 µM).
The corresponding values for `NNC(=O)c1ccncc1` [ISONIAZID] are 0.014 µg/mL (≈ 0.102 µM), 0.05 µg/mL (≈ 0.365 µM) and more than 27 µg/mL.
The matching figures for `COc1c(N2C[C@@H]3CCCN[C@@H]3C2)c(F)cc2c(=O)c(C(=O)O)cn(C3CC3)c12` [MOXIFLOXACIN]: 0.04 µg/mL (≈ 0.0996 µM), 3.9 µg/mL (≈ 9.72 µM) and 0.04 µg/mL (≈ 0.0996 µM).
Take `CO[C@@H]1[C@@H](OC(N)=O)[C@@H](O)[C@H](Oc2ccc3c(O)c(NC(=O)c4ccc(O)c(CC=C(C)C)c4)c(=O)oc3c2C)OC1(C)C` [NOVOBIOCIN]: the MIC in assay [1] was 13.5 µg/mL (≈ 22 µM); in assay [2] it was 7.35 µg/mL (≈ 12 µM); in assay [3], 6.7 µg/mL (≈ 10.9 µM).
The matching figures for `CO[C@H]1/C=C/O[C@@]2(C)Oc3c(C)c(O)c4c(O)c(c(/C=N/N5CCN(C)CC5)c(O)c4c3C2=O)NC(=O)/C(C)=C\C=C\[C@H](C)[C@H](O)[C@@H](C)[C@@H](O)[C@@H](C)[C@H](OC(C)=O)[C@@H]1C` [RIFAMPIN]: 3 µg/mL (≈ 3.65 µM), 0.019 µg/mL (≈ 0.0231 µM) and 0.013 µg/mL (≈ 0.0158 µM).
